Measurements: patent US10399940B2, “Substituted pyrrolidines and methods of use” (AbbVie S.à.r.l., priority 2016, dated 2019)
Like-named read-outs stand apart in the source and are kept apart here.

Molecular target: T1, F508delCFTR (Homo sapiens, UniProt P13569, DEL508-508)
T1 construct: expressed in transfected cells; host or cells: CFBE41o- (human lung derived epithelial cell line), doxycycline-inducible expression
Assay: Cell Surface Expression-Horse Radish Peroxidase (CSE-HRP) assay
Assay type: cell-based
Conditions: CFBE41o-F508delCFTR-HRP cells; for Maximum % activity (with co-corrector): with co-corrector (2 μM); for Maximum % activity (with co-corrector) / Maximum % activity (without co-corrector): normalized to on-plate positive control, highest concentration 20 μM
How it was run: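 CFBE41o- cells expressed F508delCFTR with HRP in the fourth exofacial loop, induced by 0.5 μg/mL doxycycline for 72 h at 37 °C. Compounds alone or with 2 μM co-corrector ran 18–24 h at 33 °C, 8-point 3-fold from 20 μM. Washed-cell luminol luminescence was normalized to DMSO and positive control, fitted sigmoidally for EC50 (three plates).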

[1] = test compound without co-corrector, 18-24 hours at 33° C., read-out: EC50 (without co-corrector)
[2] = with co-corrector (2 μM of 3-[(2R,4R)-4-({[1-(2,2-difluoro-1,3-benzodioxol-5-yl)cyclopropyl]carbonyl}amino)-7-methoxy-3,4-dihydro-2H-chromen-2-yl]benzoic acid), read-out: EC50 (with co-corrector)

T1 sequence (P13569 with tags, fused parts or gaps DEL508-508): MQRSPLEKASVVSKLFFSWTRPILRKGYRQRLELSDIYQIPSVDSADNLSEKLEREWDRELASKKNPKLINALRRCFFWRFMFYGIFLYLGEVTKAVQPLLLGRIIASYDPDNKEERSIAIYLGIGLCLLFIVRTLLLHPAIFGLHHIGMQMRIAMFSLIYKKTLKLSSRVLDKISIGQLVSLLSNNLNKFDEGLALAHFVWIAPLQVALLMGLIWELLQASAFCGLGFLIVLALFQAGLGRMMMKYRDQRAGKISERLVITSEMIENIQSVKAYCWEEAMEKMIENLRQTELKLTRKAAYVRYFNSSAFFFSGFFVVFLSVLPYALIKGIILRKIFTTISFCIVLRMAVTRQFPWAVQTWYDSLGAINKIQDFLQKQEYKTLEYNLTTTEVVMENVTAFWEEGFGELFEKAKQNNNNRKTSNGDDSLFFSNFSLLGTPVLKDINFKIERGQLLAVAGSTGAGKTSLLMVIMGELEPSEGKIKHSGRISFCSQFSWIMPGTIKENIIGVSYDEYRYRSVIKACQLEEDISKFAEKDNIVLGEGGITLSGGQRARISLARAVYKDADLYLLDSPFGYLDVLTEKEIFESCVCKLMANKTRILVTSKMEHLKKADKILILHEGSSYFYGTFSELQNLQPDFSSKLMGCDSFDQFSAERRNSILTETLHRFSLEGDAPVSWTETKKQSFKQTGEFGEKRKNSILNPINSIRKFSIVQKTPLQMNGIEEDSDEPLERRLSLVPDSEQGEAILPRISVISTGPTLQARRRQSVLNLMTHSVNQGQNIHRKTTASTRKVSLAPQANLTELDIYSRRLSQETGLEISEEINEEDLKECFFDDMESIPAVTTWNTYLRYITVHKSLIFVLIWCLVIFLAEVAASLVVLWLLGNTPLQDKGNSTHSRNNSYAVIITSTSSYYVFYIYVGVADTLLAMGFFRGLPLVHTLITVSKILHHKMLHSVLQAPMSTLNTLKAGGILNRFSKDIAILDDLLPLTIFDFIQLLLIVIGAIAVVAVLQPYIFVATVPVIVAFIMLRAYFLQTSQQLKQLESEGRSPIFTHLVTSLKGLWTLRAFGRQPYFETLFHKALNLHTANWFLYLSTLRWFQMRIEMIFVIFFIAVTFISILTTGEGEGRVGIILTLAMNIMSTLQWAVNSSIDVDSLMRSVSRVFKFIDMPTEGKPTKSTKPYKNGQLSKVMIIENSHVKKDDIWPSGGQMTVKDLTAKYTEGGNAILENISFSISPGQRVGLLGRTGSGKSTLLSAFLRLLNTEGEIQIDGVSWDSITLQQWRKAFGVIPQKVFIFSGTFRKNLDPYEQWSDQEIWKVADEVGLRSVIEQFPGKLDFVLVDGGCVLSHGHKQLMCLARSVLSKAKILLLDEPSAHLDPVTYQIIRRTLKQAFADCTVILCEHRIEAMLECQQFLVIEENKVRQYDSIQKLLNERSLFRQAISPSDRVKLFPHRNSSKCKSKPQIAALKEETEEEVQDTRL

Row | SMILES | EC50 [1] [nM] | EC50 [2] [nM] | Maximum % activity (with co-corrector) | Maximum % activity (without co-corrector)
1 | COc1ncc(C(F)(F)F)cc1CO[C@H]1[C@H](C(C)(C)C)[C@@H](C(=O)O)N(C(=O)[C@@H]2CCCCO2)[C@H]1c1ccccc1-c1cccc(N(C)C)c1 [Example 194, (2S,3R,4S,5S)-3-tert-butyl-5-[3′-(dimethylamino) [1,1′-biphenyl]-2-yl]-4-{[2-methoxy-5-(trifluoromethyl)pyridin-3-yl]methoxy}-1-[(2S)-oxane-2-carbonyl]pyrrolidine-2-carboxylic acid] | 1000 to 10000 | < 1000 | +++ (≥350) | +++ (≥200)
2 | COc1ncc(C(F)(F)F)cc1CO[C@H]1[C@H](C(C)(C)C)[C@@H](C(=O)O)N(C(=O)[C@@H]2CCCCO2)[C@H]1c1ccccc1-c1ccccc1C [Example 195, (2S,3R,4S,5S)-3-tert-butyl-4-{[2-methoxy-5-(trifluoromethyl)pyridin-3-yl]methoxy}-5-(2′-methyl[1,1′-biphenyl]-2-yl)-1-[(2S)-oxane-2-carbonyl]pyrrolidine-2-carboxylic acid] | 1000 to 10000 | 1000 to 10000 | +++ (≥350) | +++ (≥200)
3 | COc1ncc(C(F)(F)F)cc1CO[C@H]1[C@H](C(C)(C)C)[C@@H](C(=O)O)N(C(=O)[C@@H]2CCCCO2)[C@H]1c1ccccc1-c1ccncc1 [Example 196, (2S,3R,4S,5S)-3-tert-butyl-4-{[2-methoxy-5-(trifluoromethyl)pyridin-3-yl]methoxy}-1-[(2S)-oxane-2-carbonyl]-5-[2-(pyridin-4-yl)phenyl]pyrrolidine-2-carboxylic acid] | 1000 to 10000 | 1000 to 10000 | +++ (≥350) | ++ (≥100 and <200)
4 | COc1ncc(C(F)(F)F)cc1CO[C@H]1[C@H](C(C)(C)C)[C@@H](C(=O)O)N(C(=O)[C@@H]2CCCCO2)[C@H]1c1ccccc1-c1cncnc1 [Example 197, (2S,3R,4S,5S)-3-tert-butyl-4-{[2-methoxy-5-(trifluoromethyl)pyridin-3-yl]methoxy}-1-[(2S)-oxane-2-carbonyl]-5-[2-(pyrimidin-5-yl)phenyl]pyrrolidine-2-carboxylic acid] | 1000 to 10000 | 1000 to 10000 | ++ (≥150 and <350) | + (<100)
5 | COc1ncc(C(F)(F)F)cc1CO[C@H]1[C@H](C(C)(C)C)[C@@H](C(=O)O)N(C(=O)[C@@H]2CCCCO2)[C@H]1c1ccccc1-c1ccoc1 [Example 198, (2S,3R,4S,5S)-3-tert-butyl-5-[2-(furan-3-yl)phenyl]-4-{[2-methoxy-5-(trifluoromethyl)pyridin-3-yl]methoxy}-1-[(2S)-oxane-2-carbonyl]pyrrolidine-2-carboxylic acid] | 1000 to 10000 | 1000 to 10000 | +++ (≥350) | +++ (≥200)
6 | COc1ncc(C(F)(F)F)cc1CO[C@H]1[C@H](C(C)(C)C)[C@@H](C(=O)O)N(C(=O)[C@@H]2CCCCO2)[C@H]1c1ccccc1-c1ccn(C)c1 [Example 199, (2S,3R,4S,5S)-3-tert-butyl-4-{[2-methoxy-5-(trifluoromethyl)pyridin-3-yl]methoxy}-5-[2-(1-methyl-1H-pyrrol-3-yl)phenyl]-1-[(2S)-oxane-2-carbonyl]pyrrolidine-2-carboxylic acid] | 1000 to 10000 | 1000 to 10000 | +++ (≥350) | +++ (≥200)
7 | COc1ncc(C(F)(F)F)cc1CO[C@H]1[C@H](C(C)(C)C)[C@@H](C(=O)O)N(C(=O)[C@@H]2CCCCO2)[C@H]1c1ccccc1-c1ccccc1Cl [Example 200, (2S,3R,4S,5S)-3-tert-butyl-5-(2′-chloro[1,1′-biphenyl]-2-yl)-4-{[2-methoxy-5-(trifluoromethyl)pyridin-3-yl]methoxy}-1-[(2S)-oxane-2-carbonyl]pyrrolidine-2-carboxylic acid] | 1000 to 10000 | < 1000 | +++ (≥350) | +++ (≥200)
